Measurements reported in US20240158446A1, “CYCLIC COMPOUND HAVING SELECTIVE INHIBITORY ACTION ON KRAS OVER HRAS AND NRAS” (CHUGAI SEIYAKU KABUSHIKI KAISHA, priority 2021, published 2024).

Key:
[1] = target: GDP-bound KRAS wild-type protein (Homo sapiens, UniProt P01116); experiment: Binding to KRAS by surface plasmon resonance (SPR), Single Cycle Kinetics; conditions: SPR Single Cycle Kinetics, GDP-bound KRAS wild-type protein, 1:1 binding model; read-out: KRAS KD
[2] = target: GDP-bound NRAS wild-type protein (Homo sapiens, UniProt P01111); experiment: Binding to NRAS by surface plasmon resonance (SPR), Single Cycle Kinetics; conditions: SPR, GDP-bound NRAS wild-type protein vs GDP-bound KRAS wild-type protein
Sequence of GDP-bound NRAS wild-type protein (P01111 whole entry): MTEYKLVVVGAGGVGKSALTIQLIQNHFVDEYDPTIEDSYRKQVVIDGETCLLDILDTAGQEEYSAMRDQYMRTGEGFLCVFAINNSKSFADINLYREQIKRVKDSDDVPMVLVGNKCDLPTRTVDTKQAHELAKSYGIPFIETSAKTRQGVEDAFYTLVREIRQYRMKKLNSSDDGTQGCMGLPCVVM

[3] = target: GDP-bound HRAS wild-type protein (Homo sapiens, UniProt P01112); experiment: Binding to HRAS by surface plasmon resonance (SPR), Single Cycle Kinetics; conditions: SPR, GDP-bound HRAS wild-type protein vs GDP-bound KRAS wild-type protein
Sequence of GDP-bound HRAS wild-type protein (P01112 whole entry): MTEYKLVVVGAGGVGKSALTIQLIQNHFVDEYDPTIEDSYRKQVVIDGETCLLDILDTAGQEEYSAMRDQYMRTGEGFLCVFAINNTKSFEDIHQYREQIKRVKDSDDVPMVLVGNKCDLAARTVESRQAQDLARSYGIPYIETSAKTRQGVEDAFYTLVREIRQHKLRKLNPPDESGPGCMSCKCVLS

Sequence of GDP-bound KRAS wild-type protein (P01116 whole entry): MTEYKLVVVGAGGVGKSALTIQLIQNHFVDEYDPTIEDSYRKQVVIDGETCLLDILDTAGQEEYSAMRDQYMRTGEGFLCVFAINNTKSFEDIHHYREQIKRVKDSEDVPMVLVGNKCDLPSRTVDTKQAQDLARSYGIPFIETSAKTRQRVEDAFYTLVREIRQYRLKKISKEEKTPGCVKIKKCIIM

Structure (SMILES)	Kd [1]	NRAS/KRAS (ratio of KD value with respect to NRAS to KD value with respect to KRAS) [2]	HRAS/KRAS (ratio of KD value with respect to HRAS to KD value with respect to KRAS) [3]
CC[C@H](C)[C@@H]1NC(=O)[C@H](CC(C)C)N(C)C(=O)C[C@@H](C(=O)N2CCOCC2)N(C)C(=O)[C@H](C2CCCC2)N(C)C(=O)C2(CC(F)(F)C2)NC(=O)[C@@H]2CCCN2C(=O)[C@H](CCc2cc(F)c(C(F)(F)F)c(F)c2)NC(=O)CN(C)C(=O)[C@H](Cc2ccc(C(F)(F)F)cc2)N2CCCC[C@@H](C2=O)N(C)C(=O)CN(C)C1=O [PP0562]	0.04 nM	B (a compound having 3 or more and less than 10 is denoted as B)	B (a compound having 3 or more and less than 10 is denoted as B)
CC[C@H](C)[C@@H]1NC(=O)[C@H](CC(C)C)N(C)C(=O)C[C@@H](C(=O)N2CCOCC2)N(C)C(=O)[C@H](C2CCCC2)N(C)C(=O)C2(COC2)NC(=O)[C@@H]2CCCN2C(=O)[C@H](CCc2cc(F)c(C(F)(F)F)c(F)c2)NC(=O)CN(C)C(=O)[C@H](Cc2ccc(C(F)(F)F)cc2)N2CCCC[C@@H](C2=O)N(C)C(=O)CN(C)C1=O [PP0563]	0.1 nM	B (a compound having 3 or more and less than 10 is denoted as B)	B (a compound having 3 or more and less than 10 is denoted as B)
CC[C@H](C)[C@@H]1NC(=O)[C@H](CC(C)C)N(C)C(=O)C[C@@H](C(=O)N2CCOCC2)N(C)C(=O)[C@H](C2CCCC2)N(C)C(=O)C2(CCOCC2)NC(=O)[C@@H]2CCCN2C(=O)[C@H](CCc2cc(F)c(C(F)(F)F)c(F)c2)NC(=O)CN(C)C(=O)[C@H](Cc2ccc(C(F)(F)F)cc2)N2CCCC[C@@H](C2=O)N(C)C(=O)CN(C)C1=O [PP0564]	0.18 nM	B (a compound having 3 or more and less than 10 is denoted as B)	B (a compound having 3 or more and less than 10 is denoted as B)
CC[C@H](C)[C@@H]1NC(=O)[C@H](CC(C)C)N(C)C(=O)C[C@@H](C(=O)N2CCOCC2)N(C)C(=O)[C@H](C2CCCC2)N(C)C(=O)C(C)(C)NC(=O)[C@@H]2CCCN2C(=O)[C@H](CCc2cc(F)c(C(F)(F)F)c(F)c2)NC(=O)CN(C)C(=O)[C@H](Cc2ccc(C(F)(F)F)cc2)N2CCCC[C@@H](C2=O)N(C)C(=O)CN(C)C1=O [PP0565]	0.16 nM	C (A compound having a KD ratio of 0.1 or more and less than 3 is denoted as C)	B (a compound having 3 or more and less than 10 is denoted as B)
CC[C@H](C)[C@@H]1NC(=O)[C@H](CC(C)C)N(C)C(=O)C[C@@H](C(=O)N2CCOCC2)N(C)C(=O)[C@H](C2CCC2)N(C)C(=O)C2(CCCC2)NC(=O)[C@@H]2CCCN2C(=O)[C@H](CCc2cc(F)c(C(F)(F)F)c(F)c2)NC(=O)CN(C)C(=O)[C@H](Cc2ccc(C(F)(F)F)cc2)N2CCCC[C@@H](C2=O)N(C)C(=O)CN(C)C1=O [PP0566]	0.29 nM	B (a compound having 3 or more and less than 10 is denoted as B)	B (a compound having 3 or more and less than 10 is denoted as B)
CC[C@H](C)[C@@H]1NC(=O)[C@H](CC(C)C)N(C)C(=O)C[C@@H](C(=O)N2CCOCC2)N(C)C(=O)[C@H](C2CCCCC2)N(C)C(=O)C2(CCCC2)NC(=O)[C@@H]2CCCN2C(=O)[C@H](CCc2cc(F)c(C(F)(F)F)c(F)c2)NC(=O)CN(C)C(=O)[C@H](Cc2ccc(C(F)(F)F)cc2)N2CCCC[C@@H](C2=O)N(C)C(=O)CN(C)C1=O [PP0567]	0.21 nM	B (a compound having 3 or more and less than 10 is denoted as B)	B (a compound having 3 or more and less than 10 is denoted as B)
CC[C@H](C)[C@@H]1NC(=O)[C@H](CC(C)C)N(C)C(=O)C[C@@H](C(=O)N2CCOCC2)N(C)C(=O)[C@H](CC(F)(F)F)N(C)C(=O)C2(CCCC2)NC(=O)[C@@H]2CCCN2C(=O)[C@H](CCc2cc(F)c(C(F)(F)F)c(F)c2)NC(=O)CN(C)C(=O)[C@H](Cc2ccc(C(F)(F)F)cc2)N2CCCC[C@@H](C2=O)N(C)C(=O)CN(C)C1=O [PP0568]	1.1 nM	B (a compound having 3 or more and less than 10 is denoted as B)	B (a compound having 3 or more and less than 10 is denoted as B)
CC[C@H](C)[C@@H]1NC(=O)[C@H](CC(C)C)N(C)C(=O)C[C@@H](C(=O)N(C)C)N(C)C(=O)[C@H](C2CCCC2)N(C)C(=O)C2(CCCC2)NC(=O)[C@@H]2CCCN2C(=O)[C@H](CCc2cc(F)c(C(F)(F)F)c(F)c2)NC(=O)CN(C)C(=O)[C@H](Cc2ccc(C(F)(F)F)cc2)N2CCCC[C@@H](C2=O)N(C)C(=O)CN(C)C1=O [PP0569]	0.034 nM	C (A compound having a KD ratio of 0.1 or more and less than 3 is denoted as C)	B (a compound having 3 or more and less than 10 is denoted as B)
CC[C@H](C)[C@@H]1NC(=O)[C@H](CC(C)C)N(C)C(=O)C[C@@H](C(=O)N2CCC2)N(C)C(=O)[C@H](C2CCCC2)N(C)C(=O)C2(CCCC2)NC(=O)[C@@H]2CCCN2C(=O)[C@H](CCc2cc(F)c(C(F)(F)F)c(F)c2)NC(=O)CN(C)C(=O)[C@H](Cc2ccc(C(F)(F)F)cc2)N2CCCC[C@@H](C2=O)N(C)C(=O)CN(C)C1=O [PP0570]	0.046 nM	B (a compound having 3 or more and less than 10 is denoted as B)	B (a compound having 3 or more and less than 10 is denoted as B)
CC[C@H](C)[C@@H]1NC(=O)[C@H](CC(C)C)N(C)C(=O)C[C@@H](C(=O)N2CCCC2)N(C)C(=O)[C@H](C2CCCC2)N(C)C(=O)C2(CCCC2)NC(=O)[C@@H]2CCCN2C(=O)[C@H](CCc2cc(F)c(C(F)(F)F)c(F)c2)NC(=O)CN(C)C(=O)[C@H](Cc2ccc(C(F)(F)F)cc2)N2CCCC[C@@H](C2=O)N(C)C(=O)CN(C)C1=O [PP0571]	0.05 nM	B (a compound having 3 or more and less than 10 is denoted as B)	B (a compound having 3 or more and less than 10 is denoted as B)
CC[C@H](C)[C@@H]1NC(=O)[C@H](CC(C)C)N(C)C(=O)C[C@@H](C(=O)N2CCCCC2)N(C)C(=O)[C@H](C2CCCC2)N(C)C(=O)C2(CCCC2)NC(=O)[C@@H]2CCCN2C(=O)[C@H](CCc2cc(F)c(C(F)(F)F)c(F)c2)NC(=O)CN(C)C(=O)[C@H](Cc2ccc(C(F)(F)F)cc2)N2CCCC[C@@H](C2=O)N(C)C(=O)CN(C)C1=O [PP0572]	0.14 nM	B (a compound having 3 or more and less than 10 is denoted as B)	B (a compound having 3 or more and less than 10 is denoted as B)
